Measured values from US7704995B2 (Exelixis, Inc., priority 2003, dated 2010).

Target: T1, Chk1 (Homo sapiens, UniProt O14757)
T1 construct: purchased Upstate Biotechnology
T1 sequence (O14757 1-476): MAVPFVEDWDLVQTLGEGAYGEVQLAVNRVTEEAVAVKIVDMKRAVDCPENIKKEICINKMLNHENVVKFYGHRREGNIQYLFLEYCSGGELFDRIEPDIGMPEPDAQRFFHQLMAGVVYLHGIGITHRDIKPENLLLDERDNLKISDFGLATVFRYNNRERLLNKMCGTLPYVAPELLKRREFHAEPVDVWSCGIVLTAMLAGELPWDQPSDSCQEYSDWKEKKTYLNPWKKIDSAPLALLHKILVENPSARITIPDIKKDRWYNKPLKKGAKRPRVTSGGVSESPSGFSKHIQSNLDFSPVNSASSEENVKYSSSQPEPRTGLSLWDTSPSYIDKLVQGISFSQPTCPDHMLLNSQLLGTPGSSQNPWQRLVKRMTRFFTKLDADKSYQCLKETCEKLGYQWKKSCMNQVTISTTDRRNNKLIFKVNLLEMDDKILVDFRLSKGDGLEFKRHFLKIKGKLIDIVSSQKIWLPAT
Assay: Chk1 kinase assay: incorporation of γ-33P ATP into immobilized myelin basic protein
Assay type: biochemical
Conditions: read-out: Chk1 IC50
Procedure, shortened: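 Immobilized-MBP radiometric kinase assay, room temperature for 1 h; ATP 10 μM (Chk1, 10 nM enzyme) or 30 μM (Chk2, 20 nM enzyme) with 33P tracer. Values are IC50s, with Ki derived from them.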

| Compound | IC50 [nM] |
| --- | --- |
| CNC(=O)c1nc(-c2cccc(C(=O)NCc3ccc(S(C)(=O)=O)cc3)c2)cnc1N [Example 255, 3-amino-N-methyl-6-{3-[({[4-(methylsulfonyl)phenyl]methyl}amino)carbonyl]phenyl}pyrazine-2-carboxamide] | 50 to 1000 |
| CNC(=O)c1nc(-c2cccc(C(=O)NCc3cc(Br)ccc3F)c2)cnc1N [Example 256, 3-amino-6-[3-({[(5-bromo-2-fluorophenyl)methyl]amino}carbonyl)phenyl]-N-methylpyrazine-2-carboxamide] | 50 to 1000 |
| CNC(=O)c1nc(-c2cccc(C(=O)NCc3ccc(F)c(Br)c3)c2)cnc1N [Example 257, 3-amino-6-[3-({[(3-bromo-4-fluorophenyl)methyl]amino}carbonyl)phenyl]-N-methylpyrazine-2-carboxamide] | 50 to 1000 |
| CNC(=O)c1nc(-c2cccc(C(=O)NCc3c(OC)cc(OC)cc3OC)c2)cnc1N [Example 258, 3-amino-N-methyl-6-{3-[({[2,4,6-tris(methyloxy)phenyl]methyl}amino)carbonyl]phenyl}pyrazine-2-carboxamide] | 50 to 1000 |
| CNC(=O)c1nc(-c2cccc(C(=O)NCc3cccc(C)c3)c2)cnc1N [Example 259, 3-amino-N-methyl-6-[3-({[(3-methylphenyl)methyl]amino}carbonyl)phenyl]pyrazine-2-carboxamide] | 50 to 1000 |
| CNC(=O)c1nc(-c2cccc(C(=O)NCc3ccc(Br)cc3F)c2)cnc1N [Example 260, 3-amino-6-[3-({[(4-bromo-2-fluorophenyl)methyl]amino}carbonyl)phenyl]-N-methylpyrazine-2-carboxamide] | 50 to 1000 |
| CNC(=O)c1nc(-c2cccc(C(=O)NCc3cc(C)ccc3C)c2)cnc1N [Example 261, 3-amino-6-[3-({[(2,5-dimethylphenyl)methyl]amino}carbonyl)phenyl]-N-methylpyrazine-2-carboxamide] | 50 to 1000 |
| CNC(=O)c1nc(-c2cccc(C(=O)NCc3cc(C(F)(F)F)cc(C(F)(F)F)c3)c2)cnc1N [Example 262, 3-amino-6-{3-[({[3,5-bis(trifluoromethyl)phenyl]methyl}amino)carbonyl]phenyl}-N-methylpyrazine-2-carboxamide] | 50 to 1000 |
| CNC(=O)c1nc(-c2cccc(C(=O)NCC(c3ccccc3)c3ccccc3)c2)cnc1N [Example 263, 3-amino-6-(3-{[(2,2-diphenylethyl)amino]carbonyl}phenyl)-N-methylpyrazine-2-carboxamide] | 50 to 1000 |
| CNC(=O)c1nc(-c2ccsc2)cnc1N [Example 264, 3-amino-N-methyl-6-(3-thienyl)pyrazine-2-carboxamide] | 50 to 1000 |
| CNC(=O)c1nc(-c2cccc(S(=O)(=O)NCc3ccccc3)c2)cnc1N [Example 265, 3-amino-N-methyl-6-(3-{[(phenylmethyl)amino]sulfonyl}phenyl)pyrazine-2-carboxamide] | 1000 to 10000 |
| CNC(=O)c1nc(-c2cnc(N)c(C(=O)NC)n2)cnc1N [Example 266, 5,5′-diamino-N,N′-dimethyl-2,2′-bipyrazine-6,6′-dicarboxamide] | ≥ 10000 |
| CNC(=O)c1nc(-c2ccc3[nH]ccc3c2)cnc1N [Example 267, 3-amino-6-(1H-indol-5-yl)-N-methylpyrazine-2-carboxamide] | 50 to 1000 |
| CNC(=O)c1nc(-c2cccs2)cnc1N [Example 268, 3-amino-N-methyl-6-(2-thienyl)pyrazine-2-carboxamide] | 50 to 1000 |
| CNC(=O)c1nc(-c2ccncc2)cnc1N [Example 269, 3-amino-N-methyl-6-pyridin-4-ylpyrazine-2-carboxamide] | 1000 to 10000 |
| Nc1ncc(-c2cccc(C(=O)NCc3ccccc3)c2)nc1C(=O)NC1CC1 [Example 270, 3-amino-N-cyclopropyl-6-(3-{[(phenylmethyl)amino]carbonyl}phenyl)pyrazine-2-carboxamide] | 1000 to 10000 |
| Nc1ncc(-c2cccc(C(=O)NCc3c(F)cccc3Cl)c2)nc1C(=O)NC1CC1 [Example 271, 3-amino-6-[3-({[(2-chloro-6-fluorophenyl)methyl]amino}carbonyl)phenyl]-N-cyclopropylpyrazine-2-carboxamide] | ≥ 10000 |
| CCNC(=O)c1nc(-c2cccc(C(=O)NCc3ccccc3)c2)cnc1N [Example 272, 3-amino-N-ethyl-6-(3-{[(phenylmethyl)amino]carbonyl}phenyl)pyrazine-2-carboxamide] | 1000 to 10000 |

| Compound | IC50 [nM] |
| --- | --- |
| CCNC(=O)c1nc(-c2cccc(C(=O)NCc3c(F)cccc3Cl)c2)cnc1N [Example 273, 3-amino-6-[3-({[(2-chloro-6-fluorophenyl)methyl]amino}carbonyl)phenyl]-N-ethylpyrazine-2-carboxamide] | 1000 to 10000 |
| CNC(=O)c1nc(-c2cccc(C(=O)NCc3cccc(Cl)c3Cl)c2)cnc1N [Example 274, 3-amino-6-[3-({[(2,3-dichlorophenyl)methyl]amino}carbonyl)phenyl]-N-methylpyrazine-2-carboxamide] | 50 to 1000 |
| CNC(=O)c1nc(-c2cccc(C(=O)NCc3ccc(Cl)cc3F)c2)cnc1N [Example 275, 3-amino-6-[3-({[(4-chloro-2-fluorophenyl)methyl]amino}carbonyl)phenyl]-N-methylpyrazine-2-carboxamide] | < 50 |
| CNC(=O)c1nc(-c2cccc(C(=O)NCc3cc(Cl)cc(Cl)c3)c2)cnc1N [Example 276, 3-amino-6-[3-({[(3,5-dichlorophenyl)methyl]amino}carbonyl)phenyl]-N-methylpyrazine-2-carboxamide] | 50 to 1000 |
| CNC(=O)c1nc(-c2cccc(C(=O)NCc3cc(Cl)ccc3F)c2)cnc1N [Example 277, 3-amino-6-[3-({[(5-chloro-2-fluorophenyl)methyl]amino}carbonyl)phenyl]-N-methylpyrazine-2-carboxamide] | 50 to 1000 |
| CNC(=O)c1nc(-c2cccc(C(=O)NC3CC3)c2)cnc1N [Example 278, 3-amino-6-{3-[(cyclopropylamino)carbonyl]phenyl}-N-methylpyrazine-2-carboxamide] | 1000 to 10000 |
| CNC(=O)c1nc(-c2cccc(C(=O)NCc3ccc(Cl)c(Cl)c3)c2)cnc1N [Example 279, 3-amino-6-[3-({[(3,4-dichlorophenyl)methyl]amino}carbonyl)phenyl]-N-methylpyrazine-2-carboxamide] | 50 to 1000 |
| CNC(=O)c1nc(-c2cccc(C(=O)NCc3ccccc3-c3ccc(F)cc3)c2)cnc1N [Example 280, 3-amino-6-[3-({[(4′-fluorobiphenyl-2-yl)methyl]amino}carbonyl)phenyl]-N-methylpyrazine-2-carboxamide] | 50 to 1000 |
| CNC(=O)c1nc(-c2cccc(C(=O)NCc3ccc(F)c(F)c3F)c2)cnc1N [Example 281, 3-amino-N-methyl-6-[3-({[(2,3,4-trifluorophenyl)methyl]amino}carbonyl)phenyl]pyrazine-2-carboxamide] | 50 to 1000 |
| CNC(=O)c1nc(-c2cccc(C(=O)NCc3c(F)ccc(Cl)c3F)c2)cnc1N [Example 282, 3-amino-6-[3-({[(3-chloro-2,6-difluorophenyl)methyl]amino}carbonyl)phenyl]-N-methylpyrazine-2-carboxamide] | 50 to 1000 |
| CNC(=O)c1nc(-c2cccc(C(=O)NC3c4ccccc4-c4ccccc43)c2)cnc1N [Example 284, 3-amino-6-{3-[(9H-fluoren-9-ylamino)carbonyl]phenyl}-N-methylpyrazine-2-carboxamide] | ≥ 10000 |
| CNC(=O)c1nc(-c2cccc(C(=O)NCc3ccccc3C)c2)cnc1N [Example 285, 3-amino-N-methyl-6-[3-({[(2-methylphenyl)methyl]amino}carbonyl)phenyl]pyrazine-2-carboxamide] | 50 to 1000 |
| CNC(=O)c1nc(-c2cccc(C(=O)NCc3ccc(C)c(C)c3)c2)cnc1N [Example 286, 3-amino-6-[3-({[(3,4-dimethylphenyl)methyl]amino}carbonyl)phenyl]-N-methylpyrazine-2-carboxamide] | 50 to 1000 |
| CNC(=O)c1nc(-c2cccc(C(=O)NCc3cc(F)ccc3C)c2)cnc1N [Example 287, 3-amino-6-[3-({[(5-fluoro-2-methylphenyl)methyl]amino}carbonyl)phenyl]-N-methylpyrazine-2-carboxamide] | 50 to 1000 |
| CNC(=O)c1nc(-c2cccc(C(=O)NCc3ccc(F)c(F)c3)c2)cnc1N [Example 288, 3-amino-6-[3-({[(3,4-difluorophenyl)methyl]amino}carbonyl)phenyl]-N-methylpyrazine-2-carboxamide] | 50 to 1000 |
| CNC(=O)c1nc(-c2cccc(C(=O)NCc3ccccc3F)c2)cnc1N [Example 289, 3-amino-6-[3-({[(2-fluorophenyl)methyl]amino}carbonyl)phenyl]-N-methylpyrazine-2-carboxamide] | 50 to 1000 |
| CNC(=O)c1nc(-c2cccc(C(=O)NCc3ccc(N4CCN(C)CC4)cc3)c2)cnc1N [Example 290, 3-amino-N-methyl-6-{3-[({[4-(4-methylpiperazin-1-yl)phenyl]methyl}amino)carbonyl]phenyl}pyrazine-2-carboxamide] | 1000 to 10000 |
| CNC(=O)c1nc(-c2ccc(F)c(C(=O)NCc3ccccc3)c2)cnc1N [Example 291, 3-amino-6-(4-fluoro-3-{[(phenylmethyl)amino]carbonyl}phenyl)-N-methylpyrazine-2-carboxamide] | 50 to 1000 |
